Legend:
[1] = tested on: VEGF mRNA in bone marrow-derived macrophages (BMDMs); test: RT-PCR of VEGF in IL-4/IL-13 stimulated BMDMs; assay type: cell-based, mouse; settings: IL-4/IL-13, 12 h
Description: (§1) Following this line of investigation, we employed siRNA for the transient knockdown of MK2 in THP‐1 monocyte‐ differentiated macrophages. […] M2 macrophages play a pivotal role in promoting tumor angiogenesis through the secretion of critical factors like VEGF, which facilitate tumor neovascularization.[17] […] These findings further validate the significance of MK2 in the M2 polarization of macrophages and illustrate how compound 11, by targeting MK2, suppresses the pro‐tumorigenic phenotype of macrophages.
(§2) Total RNA was extracted from cultured cells using the EZ‐press RNA Purification Kit (EZBioscience). Complementary DNA was synthesized using the ABScript III RT Master Mix for qPCR with gDNA remover (ABclonal Technology) and was quantified with primers listed in Table S5. The relative mRNA expression levels were quantified through qPCR using the SYBR green gene expression assay (ABclonal Technology).
(§3) Figure S3 Inhibition of pro-tumorigenic M2-like polarization in macrophages by compound 11. (A) Illustrates the treatment effects on various macrophage cells using Western blot analysis post IL-4/IL-13 exposure (30 minutes or the specified time period). (B) Examines CD206 expression in RAW264.7 cells via flow cytometry post 48hours treatment of compound 11 and IL-4/IL-13. […] IL-4/IL-13 (20 ng/mL) served as the stimulation control, while untreated cells were the baseline control. […]

[2] = tested on: TNF-α, IL-6 and IL-1β mRNA in RAW264.7 macrophage cell line; test: RT-PCR of cytokine mRNA in LPS-stimulated RAW264.7 macrophages; assay type: cell-based, mouse; settings: 3 h pre-treatment, LPS 100 ng/mL 3 h
Description: MK2 is recognized for inducing the production of pathological cytokines that fuel inflammation, including IL‐6, TNF‐α, and IL‐1β. These cytokines are the classic downstream target gene of MK2 and are identified as significant contributors to the risk of inflammation‐driven cancer,[34], [35], [36] such as colorectal cancer and hepatocellular carcinoma. Therefore, we assessed the transcriptional levels of these typical downstream cytokines in human monocytic THP‐1 cell‐line‐derived macrophage and the mouse RAW264.7 macrophage cell line under the influence of compound 11. […] Taken together, our findings corroborate that compound 11 effectively impedes the transcription and production of these key MK2 downstream pro‐inflammatory cytokines.
FIGURE 4 Targeting cellular MK2 signaling with irreversible inhibition by compound 11. […] (C) The inhibitory effects of compound 11 on TNF‐α and IL‐6 production in LPS‐stimulated RAW264.7 macrophages for 24 h, measured by ELISA. […]
as §2

[3] = Cell viability assay (CCK-8), HCC44; assay type: cell-based; settings: HCC44 cells (non-small cell lung carcinoma), HCC44, human non-small cell lung carcinoma, read-out: IC50 (μM) mean ± SD, cytotoxicity
Procedure: In cellular experiments, cells are seeded into either 6-well or 96-well plates and incubated overnight, proceeding with treatments as described in the figure legends or methods section. The cell inoculation numbers are outlined as follows: For assays measuring cell viability, between 3,000 to 5,000 cells are seeded per well in 96-well plates. For other cellular assays, the seeding density ranges from 5×10^5 to 1×10^6 cells per well in 6-well plates.
Cells was plated into 96-well plates and incubated overnight prior to introduction of varying concentrations of compounds or control solvent. Following a 72-hour exposure period, cell viability was determined using a Cell Counting Kit-8 assay (Life-iLab, China). Dose-response curves were fitted using a four-parameter method facilitated by SoftMax Pro, which was subsequently used for the computation of IC50 values.

VEGF mRNA in THP-1 cells = test: RT-PCR of VEGF in IL-4/IL-13 stimulated THP-1 cells; assay type: cell-based, human; settings: IL-4/IL-13, 12 h
Description: as §1, §2, §3

C=CC(=O)Nc1cc(-c2cc(-c3cc4c([nH]3)CCNC4=O)ccn2)ccc1OC(F)(F)F [compound 11]
effect on relative mRNA level of VEGF [1]: inhibited | effect on LPS-induced TNF-α, IL-6 and IL-1 mRNA expression [2]: significantly inhibited | IC50 at 72 h [3]: 32.3 ± 3.3 µM | effect on relative mRNA level of VEGF (VEGF mRNA in THP-1 cells): inhibited

— publication PMC11233931, “Remodeling tumor‐associated macrophage for anti‐cancer effects by rational design of irreversible inhibition of mitogen‐activated protein kinase‐activated protein kinase 2” (MedComm, 2024)
